Measurements as given in patent US20070112013A1, “Method of modulating ion channel functional activity” (Australian National University, priority 1998, published 2007).

Experiments:
Vpu ion channel [1] = biological target: T1, Vpu ion channel (Human immunodeficiency virus type 1 group M subtype B, UniProt P05919); test: Vpu ion channel activity in planar lipid bilayers; format: biochemical, HIV-1; settings: concentrations of 50-250μM
T1 construct: The vpu ORF was cloned in-frame at the 3′ end of the GST gene in p2GEX to generate p2GEXVpu; GST (N, cleaved yes); made in house; host or cells: E. coli XL1-blue containing p2GEXVpu
Source text: FIG. 6 is a graphical representation of the inhibition of Vpu ion channel activity by 5-(N,N-hexamethylene)-arniloride (HMA) in planar lipid bilayers. The three traces represent typical Vpu channel activity observed in the presence of the indicated concentrations of HMA. The solid line indicates the zero current level. Mean currents (±variance), calculated for continuous channel recordings of at least 30 seconds duration, are plotted in the graph for each of the three drug concentrations.
Purified Vpu was tested for its ability to induce channel activity in planar lipid bilayers using standard techniques as described elsewhere (Miller, 1986; and Piller et al, 1996). The solutions in the CIS and TRANS chambers were separated by a Delrin™ plastic wall containing a small circular hole of approximately 100 μm diameter across which a lipid bilayer was painted so as to form a high resistance electrical seal. Bilayers were painted from a mixture (8:2) of palrnitoyl-oleoly-phosphatidyl-ethanolamine and palmitoyl-oleoly-phosphatidyl-choline (Avanti Polar Lipids, Alabaster, Alabama) in n-decane. The solutions in the two chambers contained MES buffer (10 mM, pH 6.0) to which various NaCl or KCl concentrations were added. Currents were recorded with an Axopatch™ 200 amplifier. The electrical potential between the two chambers could be manipulated between ±200 mV (TRANS relative to grounded CIS). Aliquots containing Vpu were added to the CIS chamber either as a detergent solution or after incorporation of the protein into phospholipid vesicles. The chamber was stirred until currents were observed.

HIV-1 [2] = test: PCR based assay of newly synthesised HIV DNA in human monocytes and macrophages; format: cell-based; settings: 50 μM
Method: Human monocytes were isolated from peripheral blood and cultured either for 24 hr (one day old monocytes) or for 7 days to allow differentiation into monocyte derived macrophages (MDM). These cells were then exposed to cell-free preparations of HIV isolates and allowed to absorb for 2 hr before complete aspiration of the medium, washing once with virus-free medium and resuspension in fresh medium. The cells were exposed to 50-10 μM HMA or DMA either 24 hr prior to infection or after infection. Subsequent HIV replication, at various times after infection, was compared in cells exposed to drugs and in cells not exposed to drugs (controls). The progression and extent of viral replication was assayed using either an HIV DNA PCR method (Fear et al, 1998) or an ELISA method to quantitate p24 in culture supernatants (Kelly et al, 1998).
(§1) Subsequent tests were carried out to establish whether there was any anti-viral activity of HMA and DMA. Two tests were performed to characterise the effects of the drugs on HIV replication in human monocytes and macrophages: a) A PCR based assay was used to detect newly synthesised DNA arising from reverse transcription of the HIV genome, an early stage in virus replication; b) An ELISA method was used to quantitate production of the viral protein p24, reflecting a later stage in the replication process.

HIV-1 [3] = test: p24 ELISA of HIV virion production in human monocytes and macrophages; format: cell-based
Method: FIG. 7 is a graphical representation of the effect of HMA on HIV virion production in monocytes and monocyte-derived macrophages. HIV in culture supernatants was assayed at various days post-infection by detection of p24 antigen using a quantitative ELISA method. Solid black bars represent HIV-infected cells exposed to 10 μM HMA. Hatched bars are control cells not exposed to drug.
Human monocytes were isolated from peripheral blood and cultured either for 24 hr (one day old monocytes) or for 7 days to allow differentiation into monocyte derived macrophages (MDM). […] The progression and extent of viral replication was assayed using either an HIV DNA PCR method (Fear et al, 1998) or an ELISA method to quantitate p24 in culture supernatants (Kelly et al, 1998).
as §1

Vpu ion channel [4] = biological target: T1, Vpu ion channel; test: Bio-assay for Vpu channel blockers: growth of E. coli XL1-blue expressing Vpu on plates lacking adenine; format: cell-based, HIV-1; settings: XL1-blue E. coli containing pPL-Vpu, medium lacking adenine, 37° C.
Method: FIG. 5 is a graphical representation of the screening of drugs for potential Vpu channel blockers. […] Numbers 6-11 are located at the sites of application of various drugs being tested, which were applied in 3μl drops and allowed to soak into the agarose. The plate was then incubated at 37° C. for 48hr prior to being photographed. The background grey shade corresponds to areas of no bacterial growth. The bright circular area around “10” represents bacterial cell growth as a result of application of adenine at that location (positive control).
As part of a search for drugs that block the Vpu ion channel, a novel bio-assay was developed to facilitate the screening process which would be prohibitively slow if performed in the bilayer assay (Ewart et al, 1996). This bio-assay is based on the observation that expression of Vpu in E.coli results in an active Vpu channel located in the plasmalemma that dissipates the transmembrane sodium gradient. As a consequence of this Vpu channel activity, metabolites whose accumulation within the cells is mediated by a sodium dependent co-transporter (for example proline or adenine) leak out of the cell faster than they can be synthesised so that the metabolites' intracellular levels become limiting for growth of the cell. Thereby, an E. coli cell expressing Vpu is unable to grow in minimal drop-out media lacking adenine or proline. However, in the presence of a drug that blocks the Vpu channel, the cell is once again able to re-establish its transmembrane sodium gradient—due to the action of other ion pumps in the membrane—and the leakage of metabolites is prevented enabling growth.
It was observed that, due to an uncharacterised mutation in the adenine synthesis pathway, growth of E. coli cells of the XL1-blue strain expressing Vpu at 37° C. was dependant on the presence of adenine in the medium. […]

HIV = test: Effect on HIV replication (test not specified); format: cell-based

T1 sequence (P05919 whole entry): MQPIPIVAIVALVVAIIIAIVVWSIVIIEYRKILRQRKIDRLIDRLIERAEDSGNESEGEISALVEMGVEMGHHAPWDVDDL

Structure (SMILES)	inhibition of Vpu ion-channel activity (Vpu ion channel [1])	synthesis of HIV DNA in the cells (HIV-1 [2])	HIV virion synthesis (p24 ELISA) (HIV-1 [3]; 50 μM, data not shown)	halo of bacterial growth around the site of application (inhibition of Vpu channel) (Vpu ion channel [4])	halo of bacterial growth around the site of application (inhibition of Vpu channel) (Vpu ion channel [4]; listed as 5-(N,N-hexamethylene)-anmiloride)	HIV virion synthesis (p24 ELISA) (HIV-1 [3]; 10 μM, monocytes (FIG. 7A) and macrophages (FIG. 7B))	effect on HIV replication (HIV)
CN(C)c1nc(N)c(C(=O)N=C(N)N)nc1Cl [DMA, 5-(N,N-Dimethyl)-Amiloride]	inhibit channel activity, though not as potently as HMA	inhibited synthesis of HIV DNA	clear inhibition of HIV virion synthesis	–	–	–	–
NC(N)=NC(=O)c1nc(Cl)c(N2CCCCCC2)nc1N [HMA, 5-(N,N-Hexamethylene)-Amiloride]	block ion flow through the channel	–	–	a halo of growth	smaller halo of bacterial growth	clear inhibition of HIV virion synthesis	–
N=C(N)NC(=O)c1nc(Cl)c(N)nc1N [amiloride, reference compound]	not active as a channel blocker	–	–	did not produce a halo of bacterial growth	–	–	no effect on HIV replication
